Measured values reported in patent US20240116951A1, “HETEROCYCLIC COMPOUNDS AND USES THEREOF” (Kumquat Biosciences Inc., priority 2022, published 2024).

Columns and labels:
Assay type in all cases: binding
KRAS G12S = biological target: T1, KRAS G12S (Homo sapiens, UniProt P01116, G12S); assay: HTRF assay of K-Ras G12S interaction with SOS1 (PPI-HTRF); conditions: 5 nM KRAS G12S, read-out: PPI-HTRF-5 nM KRAS G12S
T1 construct: made in house; host or cells: E. coli, e.g. BL21 (DE3)
Outline: (§1)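 Compounds tested in duplicate from 10 μM to 0.01 μM; 665/620 nm emission ratio used to derive IC50. Proximity FRET between anti-GST-Eu on GST-K-Ras (wildtype or mutant) and anti-6His-XL665 on His-hSOS1 measured after ≥10 min in pH 7.4 HEPES/NaCl/DTT/BSA/Igepal buffer.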

KRAS WT = biological target: T2, KRAS WT (Homo sapiens, UniProt P01116); assay: HTRF assay of wildtype K-Ras interaction with SOS1 (PPI-HTRF); conditions: HTRF, 5 nM KRAS WT; read-out: PPI-HTRF-5 nM KRAS WT
T2 construct: made in house; host or cells: E. coli, e.g. BL21 (DE3)
Outline: as §1

KRAS G12D = biological target: T3, KRAS G12D (Homo sapiens, UniProt P01116, G12D); assay: HTRF assay of K-Ras G12D interaction with SOS1 (PPI-HTRF); conditions: HTRF, 5 nM KRAS G12D; read-out: PPI-HTRF-5 nM KRAS G12D
T3 construct: made in house; host or cells: E. coli, e.g. BL21 (DE3)
Outline: as §1

Measured: IC50

T2 sequence (P01116 1-188 isoform P01116-2): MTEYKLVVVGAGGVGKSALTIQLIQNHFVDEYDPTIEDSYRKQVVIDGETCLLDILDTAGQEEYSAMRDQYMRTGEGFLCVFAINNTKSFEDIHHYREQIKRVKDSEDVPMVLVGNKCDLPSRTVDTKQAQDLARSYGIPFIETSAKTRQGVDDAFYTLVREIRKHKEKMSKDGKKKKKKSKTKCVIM
T3 sequence (P01116 1-188 isoform P01116-2 G12D): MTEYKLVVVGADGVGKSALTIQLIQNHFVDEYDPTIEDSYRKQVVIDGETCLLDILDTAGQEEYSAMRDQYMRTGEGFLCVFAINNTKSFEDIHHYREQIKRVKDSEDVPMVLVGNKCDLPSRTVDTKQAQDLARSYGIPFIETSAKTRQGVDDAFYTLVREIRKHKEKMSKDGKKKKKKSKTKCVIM
T1 sequence (P01116 1-188 isoform P01116-2 G12S): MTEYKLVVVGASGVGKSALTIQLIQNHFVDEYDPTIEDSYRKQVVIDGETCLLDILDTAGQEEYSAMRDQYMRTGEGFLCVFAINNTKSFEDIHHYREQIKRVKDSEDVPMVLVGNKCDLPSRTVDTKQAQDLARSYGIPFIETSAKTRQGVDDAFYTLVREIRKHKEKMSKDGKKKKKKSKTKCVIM

N#Cc1c(N)sc2c(F)ccc(-c3c(Cl)cc4c(N5CCC6(COCCN6C(=O)C6CC6(F)F)C5)nc(OC[C@@]56CCCN5C[C@H](F)C6)nc4c3F)c12 (stereo partly drawn) [Compound 258, 2-amino-4-(6-chloro-4-(6-(2,2-difluorocyclopropane-1-carbonyl)-9-oxa-2,6-diazaspiro[4.5]decan-2-yl)-8-fluoro-2-(((2R,7aS)-2-fluorotetrahydro-1H-pyrrolizin-7a(5H)-yl)methoxy)quinazolin-7-yl)-7-fluorobenzo[b]thiophene-3-carbonitrile]
< 5 µM: all assays above

CN(C)CC1(COc2nc(N3CCC4(CCN4C(=O)n4cncn4)C3)c3cc(Cl)c(-c4ccc(F)c5sc(N)c(C#N)c45)c(F)c3n2)CC1 (stereo not drawn) [Compound 315, 4-(4-(1-(1H-1,2,4-triazole-1-carbonyl)-1,6-diazaspiro[3.4]octan-6-yl)-6-chloro-2-((1-((dimethylamino)methyl)cyclopropyl)methoxy)-8-fluoroquinazolin-7-yl)-2-amino-7-fluorobenzo[b]thiophene-3-carbonitrile]
< 5 µM: all assays above

N#Cc1c(N)sc2c(F)ccc(-c3c(Cl)cc4c(N5CCC6(CCN6C(=O)ON6C(=O)CCC6=O)C5)nc(OC[C@@]56CCCN5C[C@H](F)C6)nc4c3F)c12 (stereo partly drawn) [Compound 243, 2,5-dioxopyrrolidin-1-yl 6-(7-(2-amino-3-cyano-7-fluorobenzo[b]thiophen-4-yl)-6-chloro-8-fluoro-2-(((2R,7aS)-2-fluorotetrahydro-1H-pyrrolizin-7a(5H)-yl)methoxy)quinazolin-4-yl)-1,6-diazaspiro[3.4]octane-1-carboxylate]
< 5 µM: all assays above

N#CCC1CN(c2nc(OC[C@@]34CCCN3C[C@H](F)C4)nc3c(F)c(-c4ccc(F)c5sc(N)c(C#N)c45)c(Cl)cc23)CC12CCN2C(=O)n1cnc(C(F)F)n1 (stereo partly drawn) [Compound 329, 2-amino-4-(6-chloro-4-(8-(cyanomethyl)-1-(3-(difluoromethyl)-1H-1,2,4-triazole-1-carbonyl)-1,6-diazaspiro[3.4]octan-6-yl)-8-fluoro-2-(((2R,7aS)-2-fluorotetrahydro-1H-pyrrolizin-7a(5H)-yl)methoxy)quinazolin-7-yl)-7-fluorobenzo[b]thiophene-3-carbonitrile]
< 5 µM: all assays above

Cc1nc(C)n(C(=O)N2CCC23CCN(c2nc(OC[C@@]45CCCN4C[C@H](F)C5)nc4c(F)c(-c5ccc(F)c6sc(N)c(C#N)c56)c(Cl)cc24)C3)n1 (stereo partly drawn) [Compound 226, 2-amino-4-(6-chloro-4-(1-(3,5-dimethyl-1H-1,2,4-triazole-1-carbonyl)-1,6-diazaspiro[3.4]octan-6-yl)-8-fluoro-2-(((2R,7aS)-2-fluorotetrahydro-1H-pyrrolizin-7a(5H)-yl)methoxy)quinazolin-7-yl)-7-fluorobenzo[b]thiophene-3-carbonitrile]
< 5 µM: all assays above

C[C@H](Oc1nc(N2CCC3(CCN3C(=O)c3ccnn3C)C2)c2cc(Cl)c(-c3ccc(F)c4sc(N)c(C#N)c34)c(F)c2n1)[C@@H]1CCCN1C (stereo partly drawn) [Compound 274, 2-amino-4-(6-chloro-8-fluoro-4-(1-(1-methyl-1H-pyrazole-5-carbonyl)-1,6-diazaspiro[3.4]octan-6-yl)-2-((S)-1-((S)-1-methylpyrrolidin-2-yl)ethoxy)quinazolin-7-yl)-7-fluorobenzo[b]thiophene-3-carbonitrile]
< 5 µM: all assays above

N#Cc1c(N)sc2c(F)ccc(-c3c(Cl)cc4c(N5CCCC6(CCCN6C(=O)n6cncn6)C5)nc(OC[C@@]56CCCN5C[C@H](F)C6)nc4c3F)c12 (stereo partly drawn) [Compound 208, 4-(4-(1-(1H-1,2,4-triazole-1-carbonyl)-1,7-diazaspiro[4.5]decan-7-yl)-6-chloro-8-fluoro-2-(((2R,7aS)-2-fluorotetrahydro-1H-pyrrolizin-7a(5H)-yl)methoxy)quinazolin-7-yl)-2-amino-7-fluorobenzo[b]thiophene-3-carbonitrile]
< 5 µM: all assays above

N#Cc1c(N)sc2c(F)ccc(-c3c(Cl)cc4c(N5CC[C@@]6(CCN6C(=O)n6cnc(F)n6)C5)nc(OC[C@@]56CCCN5C[C@H](F)C6)nc4c3F)c12 (atropisomer, axis not shown; (aS)) [Compound 281, (R)-2-amino-4-(6-chloro-8-fluoro-4-((R)-1-(3-fluoro-1H-1,2,4-triazole-1-carbonyl)-1,6-diazaspiro[3.4]octan-6-yl)-2-(((2R,7aS)-2-fluorotetrahydro-H-pyrrolizin-7a(5H)-yl)methoxy)quinazolin-7-yl)-7-fluorobenzo[b]thiophene-3-carbonitrile]
< 5 µM: all assays above

N#Cc1c(N)sc2c(F)ccc(-c3c(Cl)cc4c(N5CCC6(CCN6C(=O)n6cc(C(F)(F)F)nn6)C5)nc(OC[C@@]56CCCN5C[C@H](F)C6)nc4c3F)c12 (stereo partly drawn) [Compound 318, 2-amino-4-(6-chloro-8-fluoro-2-(((2R,7aS)-2-fluorotetrahydro-1H-pyrrolizin-7a(5H)-yl)methoxy)-4-(1-(4-(trifluoromethyl)-1H-1,2,3-triazole-1-carbonyl)-1,6-diazaspiro[3.4]octan-6-yl)quinazolin-7-yl)-7-fluorobenzo[b]thiophene-3-carbonitrile]
< 5 µM: all assays above

Cc1nc(C(C)C)nn1C(=O)N1CCOCC12CCN(c1nc(OC[C@@]34CCCN3C[C@H](F)C4)nc3c(F)c(-c4ccc(F)c5sc(N)c(C#N)c45)c(Cl)cc13)C2 (stereo partly drawn) [Compound 337, 2-Amino-4-(6-chloro-8-fluoro-2-(((2R,7aS)-2-fluorotetrahydro-1H-pyrrolizin-7a(5H)-yl)methoxy)-4-(6-(3-isopropyl-5-methyl-1H-1,2,4-triazole-1-carbonyl)-9-oxa-2,6-diazaspiro[4.5]decan-2-yl)quinazolin-7-yl)-7-fluorobenzo[b]thiophene-3-carbonitrile]
< 5 µM: all assays above

N#Cc1c(N)sc2c(F)ccc(-c3c(Cl)cc4c(N5CCC6(CCN6C(=O)CCl)C5)nc(OC[C@@]56CCCN5C[C@H](F)C6)nc4c3F)c12 (stereo partly drawn) [Compound 294, 2-amino-4-(6-chloro-4-(1-(2-chloroacetyl)-1,6-diazaspiro[3.4]octan-6-yl)-8-fluoro-2-(((2R,7aS)-2-fluorotetrahydro-1H-pyrrolizin-7a(5H)-yl)methoxy)quinazolin-7-yl)-7-fluorobenzo[b]thiophene-3-carbonitrile]
< 5 µM: all assays above

N#Cc1c(N)sc2c(F)ccc(-c3c(Cl)cc4c(N5CCC6(CCN6C(=O)n6cnc(C(F)F)n6)C5)nc(OC[C@@]56CCCN5C[C@H](F)C6)nc4c3F)c12 (stereo partly drawn) [Compound 215, 2-amino-4-(6-chloro-4-(1-(3-(difluoromethyl)-1H-1,2,4-triazole-1-carbonyl)-1,6-diazaspiro[3.4]octan-6-yl)-8-fluoro-2-(((2R,7aS)-2-fluorotetrahydro-1H-pyrrolizin-7a(5H)-yl)methoxy)quinazolin-7-yl)-7-fluorobenzo[b]thiophene-3-carbonitrile]
< 5 µM: all assays above

C[C@H](Oc1nc(N2CCCC3(CCN3C(=O)n3cncn3)C2)c2cc(Cl)c(-c3ccc(F)c4sc(N)c(C#N)c34)c(F)c2n1)[C@@H]1CCCN1C (stereo partly drawn) [Compound 201, 4-(4-(1-(1H-1,2,4-triazole-1-carbonyl)-1,6-diazaspiro[3.5]nonan-6-yl)-6-chloro-8-fluoro-2-((S)-1-((S)-1-methylpyrrolidin-2-yl)ethoxy)quinazolin-7-yl)-2-amino-7-fluorobenzo[b]thiophene-3-carbonitrile]
< 5 µM: all assays above

Nc1nc2c(-c3c(Cl)cc4c(N5CCC6(CC5)CCN6C(=O)n5cncn5)nc(OC[C@@]56CCCN5C[C@H](F)C6)nc4c3F)ccc(F)c2s1 [Compound 269, (7-(7-(2-amino-7-fluorobenzo[d]thiazol-4-yl)-6-chloro-8-fluoro-2-(((2R,7aS)-2-fluorotetrahydro-1H-pyrrolizin-7a(5H)-yl)methoxy)quinazolin-4-yl)-1,7-diazaspiro[3.5]nonan-1-yl)(1H-1,2,4-triazol-1-yl)methanone]
< 5 µM: all assays above

C[C@H]1CN(C(=O)n2cncn2)[C@]12CCN(c1nc(OC[C@@]34CCCN3C[C@H](F)C4)nc3c(F)c(-c4ccc(F)c5sc(N)c(C#N)c45)c(Cl)cc13)C2 [Compound 324, 2-amino-4-(6-chloro-8-fluoro-2-(((2R,7aS)-2-fluorotetrahydro-1H-pyrrolizin-7a(5H)-yl)methoxy)-4-((3S,4R)-3-methyl-1-(1H-1,2,4-triazole-1-carbonyl)-1,6-diazaspiro[3.4]octan-6-yl)quinazolin-7-yl)-7-fluorobenzo[b]thiophene-3-carbonitrile]
< 5 µM: all assays above
